Consider eight molecules from US20050143291A1, “Methods and compositions for modulating apoptosis” (priority 2003, published 2005).

For data set [1], the system named is GRP78 Overexpression cells. Briefly: % Survival (Colony Assay), GRP78 overexpression. Type of data set: cell-based. As to conditions: for % Survival (Colony Assay): GRP78 Overexpression; for effect of GRP78 overexpression on sensitivity to the drug: GRP78 overexpression versus control. On the procedure:
(§1) Experiments were also performed to determine the anti-apoptotic effect conferred by overexpression of GRP78. This task was completed.
(§2) Clonogenic Survival Assays—Four thousand cells were seeded into 10-cm-diameter dishes. […] After drug treatment, the cells were grown in fresh medium for 10 to 14 days. The colonies were washed with ice-cold PBS, fixed with methanol, and stained with 10% Giemsa staining solution. The surviving fraction was determined by dividing the number of the surviving colonies in the drug-treated cells by the number of colonies in the non-treated control groups.

Another data set deals with Control cells. The data set is described as follows: % Survival (Colony Assay), control cells. The format is cell-based. On the procedure:
as §1, §2

The next data set relates to caspase-7. The data set is described as follows: In vitro caspase-7 activation assay, cell-free extracts with cytochrome c and dATP. The format is biochemical, Chinese hamster. The procedure: FIG. 5, Panel C depicts cytoplasmic extracts prepared from CHO and C.1 cells and incubated with (+) or without (−) 10 μM cytochrome c and the various amounts of dATP (mM) as indicated.
Among the executor caspases, caspase-7 has been reported to be associated with the ER. Upon induction of apoptosis, procaspase-7 (35 kDa) is first converted into a 32-kDa intermediate, which is further processed into active 20- and 11-kDa subunits. […] Upon longer exposure of the autoradiogram, the active 20- and 11-kDa forms were evident in the etoposide-treated cells. When GRP78 was overexpressed, a low level of caspase-7 activation was detected in both the non-treated and etoposide-treated cells. […] In addition, upon addition of cytochrome c, caspase-7 activation was higher in CHO cells than C.1 cells, as evidenced by the increase in the active 20- and 11-kDa forms in the CHO samples compared with the C.1 samples.
The cells were suspended in 5 volumes of a hypotonic buffer (5 mM Tris-HCl, pH 7.4, 5 mM KCl, 1.5 mM MgCl2, 0.1 mM EGTA, pH 8.0, and 1 mM dithiothreitol) in the presence of 2 μg/ml leupeptin, pepstatin, and aprotinin protease inhibitors. After incubation on ice for 20 min, sucrose was added to a final concentration of 250 mM, and the cells were disrupted by douncing eight times in a 1-ml Wheaton Dounce homogenizer. The homogenate was centrifuged twice at […] for 10 min. […]

In the next data set the test system is CHO cells. The data set is described as follows: Cell cycle analysis (FACS), CHO cells. Type of data set: cell-based, Chinese hamster. As to conditions: CHO cells treated with UPR inducer, versus exponentially growing cells. On the procedure:
(§3) Cell Cycle Analysis—Following seeding, exponentially growing cells were trypsinized at different days and fixed in 70% ethanol. The fixed cells were treated with PBS containing 0.1% (v/v) Triton X-100, 0.2 mg/ml DNase-free RNase, and 20 μg/ml propidium iodide (PI) for 30 min at room temperature. The cell cycle distributions were analyzed by fluorescence-activated cell sorting (FACS) analysis (FACstar; BD Biosciences). The cell cycle distribution measurements were repeated three to four times.
(§4) In both the vector-transfected and GRP78 overexpressing cells, the percentage of G1, S, and G2 cells is similar.

The subject of another data set is T24/83 cells. Briefly: Cell cycle analysis (FACS), T24/83 cells. The format is cell-based, human. The conditions noted are these: T24/83 cells treated with UPR inducer. On the procedure: as §3, §4
Data set [2] concerns GRP78. The data set is described as follows: Specificity of Grp78 siRNA in 293T cells (Western blot of GRP78, GRP94, HSP70). The format is cell-based, human. The conditions noted are these: β-actin loading control. The text has this: (§5) The concentrations of siRNA Grp78 II used were indicated on top.
When blasted against the human genomic sequence, this sequence is unique and in principle, should not affect any other human gene. […] The level of β-actin was used as loading control.

The test system of a further data set is MDA-MB-435 cells. The data set is described as follows: Etoposide-mediated cell death after siRNA in breast cancer cells. Type of data set: cell-based, human. The source says:
(§6) This translates to more death in the cells treated with Grp78(II) siRNA than control siRNA targeted against the unrelated green fluorescence protein (FIG. 16).

Data set [3] has as its system GRP78. Briefly: Suppression of GRP78 level by siRNA in MDA-MB-435 cells (Western blot). Type of data set: cell-based, human.
From the text: as §5, §6

Data set [4] deals with T1, glucose regulated protein 78 (GRP78), wild-type, as present in CHO cells (endogenous) and C.1 cells … (hamster, UniProt G3I8R9 19-654).
T1 construct: Protein in cell lysates used for co-immunoprecipitation, not purified; also called BiP; wild-type GRP78
T1 sequence (G3I8R9 19-654 limits assumed): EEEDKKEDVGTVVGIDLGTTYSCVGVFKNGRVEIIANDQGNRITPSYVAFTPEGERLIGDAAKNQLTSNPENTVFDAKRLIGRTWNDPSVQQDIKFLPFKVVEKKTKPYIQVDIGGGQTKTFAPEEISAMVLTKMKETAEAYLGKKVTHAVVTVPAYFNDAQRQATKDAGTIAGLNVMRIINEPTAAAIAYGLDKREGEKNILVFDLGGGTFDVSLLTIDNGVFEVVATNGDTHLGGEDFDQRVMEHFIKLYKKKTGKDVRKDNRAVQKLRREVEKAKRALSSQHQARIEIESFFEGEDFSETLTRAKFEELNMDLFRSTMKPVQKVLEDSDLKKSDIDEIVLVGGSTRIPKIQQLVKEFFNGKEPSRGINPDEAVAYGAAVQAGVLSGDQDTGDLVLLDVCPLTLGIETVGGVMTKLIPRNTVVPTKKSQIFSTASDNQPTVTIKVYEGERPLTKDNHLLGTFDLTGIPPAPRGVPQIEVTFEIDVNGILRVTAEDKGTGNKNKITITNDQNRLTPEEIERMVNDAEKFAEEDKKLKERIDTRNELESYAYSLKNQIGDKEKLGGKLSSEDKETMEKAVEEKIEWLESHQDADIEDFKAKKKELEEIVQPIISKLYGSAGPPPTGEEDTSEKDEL
Briefly: co-immunoprecipitation from CHO and C.1 whole cell extracts, Western blot. On the technique in general: Immunoblotting shows a protein as a band on a membrane.
Description: Co-immunoprecipitation Assays—2×10⁶ cells were lysed in 400 μl of extraction buffer (50 mM Tris-HCl, pH 7.5, 150 mM NaCl, 0.5% Nonidet P-40, and 0.5% deoxycholate, with protease inhibitor tablet (Roche Molecular Biochemicals)) and frozen and thawed three times. 500 μg of total protein extract from each sample was pretreated with 50 μl of protein A-Sepharose beads (Sigma) for 1 h at 4° C. prior to incubation with 5 μg of either anti-caspase-7 mouse monoclonal antibody or anticaspase-3 antibodies for 2 h. Following the incubation period, 50 μl of protein A-Sepharose beads was added, and the mixtures were rotated at 4° C. overnight. The beads were then washed five times with the extraction buffer. The immunoprecipitate was released from the washed beads by the addition of 30 μl of 1×SDS-PAGE sample loading buffer (50 mM Tris-HCl, pH 6.8, 100 mM dithiothreitol, 2% SDS, 0.1% bromphenol blue, 10% glycerol), followed by heating at 100° C. for 10 min. The supernatant obtained after centrifugation was resolved by SDS-PAGE and subjected to Western blot analysis to detect the co-immunoprecipitated proteins.

Bounds are passed on as bounds.

With `CC[C@@]1(O)C(=O)OCc2c1cc1n(c2=O)Cc2cc3ccccc3nc2-1` [Camptothecin], the “% Survival (Colony Assay)” value in [1] (camptothecin 5 ng/ml) was 82%; in data set [1] (camptothecin 20 ng/ml) it was 22%; in [1] (camptothecin 60 ng/ml) it was 2%; in the data set on Control cells (camptothecin 5 ng/ml), 68%; with Control cells (camptothecin 20 ng/ml), 0.7%; in the data set with Control cells (camptothecin 60 ng/ml), 0%. Moreover, the “effect of GRP78 overexpression on sensitivity to the drug” value (“effect of GRP78 overexpression” below) in data set [1] was “confers resistance”.
As to `N.N.[Cl][Pt][Cl]` [Cisplatin], the “% Survival (Colony Assay)” value stood at 60% in [1] (cisplatin 3.3 μM); 50% in data set [1] (cisplatin 6.6 μM); 27% in data set [1] (cisplatin 9.9 μM); 16% in data set [1] (cisplatin 13.0 μM); 43% in the data set with Control cells (cisplatin 3.3 μM); 3.7% with Control cells (cisplatin 6.6 μM). The “% Survival (Colony Assay)” value in the data set on Control cells (cisplatin 9.9 μM) and in the data set on Control cells (cisplatin 13.0 μM) was 0% each time. Besides, the “effect of GRP78 overexpression” value in data set [1] is reported as “confers resistance”.
`COc1cccc2c1C(=O)c1c(O)c3c(c(O)c1C2=O)C[C@@](O)(C(=O)CO)C[C@@H]3O[C@H]1C[C@H](N)[C@H](O)[C@H](C)O1` [Doxorubicin]: the “% Survival (Colony Assay)” value is given as 95% in data set [1] (doxorubicin 0.2 μg/ml); 84% in [1] (doxorubicin 0.4 μg/ml); 68% in data set [1] (doxorubicin 0.6 μg/ml); 48% in data set [1] (doxorubicin 0.8 μg/ml); 32% in data set [1] (doxorubicin 1.0 μg/ml); 80% in the data set on Control cells (doxorubicin 0.2 μg/ml). For the same molecule, the “% Survival (Colony Assay)” value with Control cells (doxorubicin 0.4 μg/ml) is given as 42%; in the data set on Control cells (doxorubicin 0.6 μg/ml) it was 2%; in the data set on Control cells (doxorubicin 0.8 μg/ml), 0%; in the data set on Control cells (doxorubicin 1.0 μg/ml), 0%. In addition, in data set [1], the “effect of GRP78 overexpression” value is listed as “confers resistance”.
As for `Nc1ncnc2c1ncn2[C@H]1C[C@H](O)[C@@H](COP(=O)(O)OP(=O)(O)OP(=O)(O)O)O1` [dATP], in the data set with caspase-7 (1 mM dATP with cytochrome c), the “caspase-7 forms in CHO versus C.1 extracts” value is “equivalent amounts of the 32- and 20-kDa forms”. The “effect on GRP78-mediated suppression of caspase-7 activation” value with caspase-7 (C.1 extracts in the presence of both cytochrome c and dATP) is “suppressive effect of the C.1 samples was reversed”.
As to `C/C=C(/C)C(=O)O[C@H]1C(C)=C2[C@H]([C@@H]1OC(=O)CCCCCCC)[C@@](C)(OC(C)=O)C[C@H](OC(=O)CCC)[C@@]1(O)[C@H]2OC(=O)[C@@]1(C)O` [thapsigargin], the cell cycle distribution entry in the data set on CHO cells was “more cells in G1 and a dramatic reduction in S phase cells”; in the data set on T24/83 cells, “a higher percentage of G1 cells and a lower percentage in S phase”.
On to “Grp78(II) siRNA: siRNA duplex 5′ AAGGTTACCCATGCAGTTGTT 3′ (SEQ ID NO:4) and complement (SEQ ID NO:17) targeting GRP78 (antisense AACAACTGCATGGGTAACCTT; listed as DNA, chemistry not given here; listed as Homo sapiens)”, for which the “effect on GRP78, GRP94 and HSP70 levels” value in the data set with GRP78 [2] was “only GRP78 level is suppressed”. The “cell death versus control siRNA against green fluorescence protein” value in the data set with MDA-MB-435 cells is “more death”. The “siRNA concentration that significantly suppresses GRP78 level” value in the data set on GRP78 [3] is recorded as at least 80 nM.
Take tunicamycin: the cell cycle distribution entry in the data set on CHO cells is “more cells in G1 and a dramatic reduction in S phase cells”; with T24/83 cells, “a higher percentage of G1 cells and a lower percentage in S phase”.

B1: procaspase-3 (endogenous, CHO and C.1 cells) (enzyme)
chain: MENTENSVDSKSIKNLEPKIIHGSESMDSGISLDNSYKMDYPEMGLCIIVNNKNFHKSTGMTSRSGTDVDAANLRETFRNLKYGVRNKNDLTREGIVELMRDVSKEDHSKRSSFVCVLLSHGEEGIIFGTNGPVDLKKITNFFRGDRCRSLTGKPKLFIIQACRGTELDCGIETDSGVGDDMACHKIPVEADFLYAYSTAPGYYSWRNSKDGSWFIQSLCAMLKQYADKLEFMHILTRVNRKVATEFESFSFDATFHAKKQIPCIVSMLTKELYFYH
notes: Zymogen form, in whole cell extracts
On to B1, for which the binding result in data set [4] is “no binding”.
